Experimental findings from patent US20120095032A1, “METHODS FOR TREATING LEUKEMIA AND MYELODYSPLASTIC SYNDROME, AND METHODS FOR IDENTIFYING AGENTS FOR TREATING SAME” (Sanford-Burnham Medical Research Institute, priority 2007, published 2012) are described below.

The target of experiment [1] is T1, HePTP (Homo sapiens, UniProt P35236).
T1 sequence (P35236 1-360): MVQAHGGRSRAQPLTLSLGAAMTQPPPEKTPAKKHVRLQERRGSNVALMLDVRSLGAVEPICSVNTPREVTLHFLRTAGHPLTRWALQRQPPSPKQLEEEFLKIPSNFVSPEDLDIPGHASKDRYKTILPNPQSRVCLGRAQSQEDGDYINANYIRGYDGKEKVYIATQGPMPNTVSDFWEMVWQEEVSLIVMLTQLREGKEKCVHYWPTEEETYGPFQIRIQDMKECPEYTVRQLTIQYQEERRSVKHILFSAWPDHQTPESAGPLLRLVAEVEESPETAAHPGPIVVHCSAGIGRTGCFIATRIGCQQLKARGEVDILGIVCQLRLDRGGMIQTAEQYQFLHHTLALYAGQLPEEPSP
The experiment is described as follows: HePTP HTS primary screen (colorimetric pNPP / Biomol Green). The experiment is classed as biochemical. The conditions noted are these: 20 μM compound; read-out: % Inhib. at 20 μM. The text has this:
(§1) The following assay can be conducted manually or can be carried out by a robotic station.
For this assay, HePTP catalyzes the following reaction:
wherein p-nitrophenyl phosphate serves as a substrate and is cleaved to form p-nitrophenol and phosphate. The liberated phosphate complexes with the Biomol Green™ reagent to provide a quantitative colorimetric value for the amount of substrate cleaved.
(§2) Compounds are then serially diluted in 100% DMSO, and then diluted with water to 10% final DMSO concentration.
(§3) The primary screening actives can then proceed to the dose-response confirmation stage.

In experiment [2] the target is T1, HePTP. The experiment is described as follows: HePTP dose-response confirmation screening. The conditions noted are these: for IC50: 10 concentrations, 2-fold serial dilution, pNPP substrate; for n / nH (Hill coefficient): Hill coefficient of the dose-response curve. The experiment is classed as biochemical.
Text: as §1, §2, §3
* n represents the Hill coefficient. This coefficient is derived from the Hill equation which has the formula: […]
wherein θ is the fraction of ligand binding sites filled, L is the inhibitor concentration, Ka is the inhibitor concentration producing half occupation of the ligand binding sites, and n is the Hill coefficient.

Counter-ions that a name gives are not always drawn.

On to `O=C1CCCC2=C1C(c1ccco1)Nc1ccc3ccccc3c12` (stereo not drawn) [5-(Furan-2-yl)-2,3,5,6-tetrahydrobenzo[a]phenantridin-4(1H)-one], for which the inhibition at 20 µM on HePTP [1] is 59.4%. Besides, at HePTP [2], the IC50 came to 5950 nM and the “n / nH (Hill coefficient)” value is on record as 2.08.
As for `O=C1CC(=O)N(Cc2ccco2)C(=O)N1` [1-(2-Furylmethyl)-1,3-diazinane-2,4,6-trione], the inhibition at 20 µM on HePTP [1] was 84.9%. For the same molecule, on HePTP [2], the IC50 is 1310 nM and the “n / nH (Hill coefficient)” value is listed as 1.67.
Consider `N#Cc1c(N2CCCC2)nc(N)c2c(N)nc(N3CCCC3)cc12` [1,8-Diamino-3,6-dipyrrolidin-1-yl-2,7-naphthyridine-4-carbonitrile], for which, at HePTP [1], the inhibition at 20 µM stood at 61.3%. Further, at HePTP [2], the midpoint of inhibition, the IC50, lay at 6960 nM and the “n / nH (Hill coefficient)” value turned out to be 0.99.
Consider `CC(C)CN(C(=O)COC(=O)c1cc2c(s1)CCC2)C1CCS(=O)(=O)C1` (stereo not drawn) [[(1,1-Dioxothiolan-3-yl)-(2-methylpropyl)carbamoyl]methyl 4-thiabicyclo[3.3.0]octa-2,9-diene-3-carboxylate], for which, at HePTP [1], the inhibition at 20 µM worked out at 58.7%. On HePTP [2], the IC50 stood at 1210 nM and the “n / nH (Hill coefficient)” value turned out to be 1.52.
The like results for `COc1ccc(Br)cc1C(=O)Nc1cccc(-c2nnc(-c3ccco3)o2)c1` [5-Bromo-N-[3-[5-(2-furyl)-1,3,4-oxadiazol-2-yl]phenyl]-2-methoxy-benzamide] were, in that order, 102%, 4900 nM and 1.47.
The like results for `Cc1c(N2C(=O)c3ccc4c5c(ccc(c35)C2=O)CC4)c(=O)n(-c2ccccc2)n1C` [2-(1,5-Dimethyl-3-oxo-2-phenyl-2,3-dihydro-1H-pyrazol-4-yl)-6,7-dihydro-1H-indeno[6,7,1-def]isoquinoline-1,3(2H)-dione] were, in that order, 93.1%, 1170 nM and 2.23.
The like results for `O=C(NCc1ccco1)c1c2c(nc3ccccc13)CCC2` [N-(Furan-2-ylmethyl)-2,3-dihydro-1h-cyclopenta[b]quinoline-9-carboxamide;] were, in that order, 62%, 4630 nM and 1.52.
As for `Cc1nnc2sc(-c3ccc(NC(=O)c4ccc(-c5ccc(Cl)cc5Cl)o4)cc3)nn12` [5-(2,4-Dichlorophenyl)-N-[4-(2-methyl-6-thia-1,3,4,8-tetrazabicyclo[3.3.0]octa-2,4,7-trien-7-yl)phenyl]furan-2-carboxamide], at HePTP [1], the inhibition at 20 µM was found to be 102%. For the same molecule, at HePTP [2], inhibition was half-maximal at 1500 nM (IC50) and the “n / nH (Hill coefficient)” value amounted to 1.94.
The like results for `Cc1ccc(-c2nn3c(C)nnc3s2)cc1NC(=O)c1ccc(-c2ccc(Cl)cc2Cl)o1` [5-(2,4-Dichlorophenyl)-N-[2-methyl-5-(2-methyl-6-thia-1,3,4,8-tetrazabicyclo[3.3.0]octa-2,4,7-trien-7-yl)phenyl]furan-2-carboxamide] were, in that order, 92.4%, 2120 nM and 1.3.
The like results for `COc1cccc(C(=O)NC2CC3CCCC(C2)N3CC(=O)Nc2ccccc2)c1` (stereo not drawn) [3-methoxy-N-[9-(phenylcarbamoylmethyl)-9-azabicyclo[3.3.1]non-7-yl]benzamide hydrochloride] were, in that order, 103%, 4670 nM and 4.22.
On to `Cc1ccc2c(c1)C1C=CCC1C(C(=O)O)N2` (stereo not drawn) [8-methyl-3a,4,5,9b-tetrahydro-3H-cyclopenta[c]quinoline-4-carboxylic acid], for which the inhibition at 20 µM at HePTP [1] worked out at 102%. At HePTP [2], half-maximal inhibition (IC50) was put at 410 nM and the “n / nH (Hill coefficient)” value is recorded as 2.41.
The corresponding values for `CCOC(=O)c1ccc2c(c1)C1C=CCC1C(C(=O)O)N2` (stereo not drawn) [8-(ethoxycarbonyl)-3a,4,5,9b-tetrahydro-3H-cyclopenta[c]quinoline-4-carboxylic acid] are 103%, 280 nM and 2.97.
For `CC1(C)CCCN(C(=O)c2coc(=O)c(Br)c2)C1` [3-bromo-5-(3,3-dimethylpiperidine-1-carbonyl)pyran-2-one], the inhibition at 20 µM at HePTP [1] worked out at 102%. Also, at HePTP [2], half-maximal inhibition (IC50) required 400 nM and the “n / nH (Hill coefficient)” value came to 2.66.
In the case of `COc1cccc2c1NC(C(=O)O)C1CC=CC21` (stereo not drawn) [6-methoxy-3a,4,5,9b-tetrahydro-3H-cyclopenta[c]quinoline-4-carboxylic acid], the inhibition at 20 µM on HePTP [1] amounted to 103%. Further, at HePTP [2], the IC50 was determined as 1280 nM and the “n / nH (Hill coefficient)” value is 1.54.
The corresponding values for `O=C(O)C(O)c1ccco1` (stereo not drawn) [2-(2-Furyl)-2-hydroxy-acetic acid] are 100%, 2300 nM and 1.79.
`O=C(O)C1Nc2c(O)cccc2C2C=CCC12` (stereo not drawn) [6-hydroxy-3a,4,5,9b-tetrahydro-3H-cyclopenta[c]quinoline-4-carboxylic acid]: the inhibition at 20 µM at HePTP [1] amounted to 103%. Moreover, on HePTP [2], the concentration for half-maximal inhibition (IC50) stood at 200 nM and the “n / nH (Hill coefficient)” value came to 2.11.
The like results for `O=C(COC(=O)c1cccc(S(=O)(=O)N2CCN(c3ccccc3)CC2)c1)NCc1ccco1` [2-Furylmethylcarbamoylmethyl 3-(4-phenylpiperazin-1-yl)sulfonylbenzoate] were, in that order, 50.7%, 4970 nM and 2.07.
The like results for `O=C(O)c1cccc(-n2cccc2/C=N/O)c1` [3-[2-(Hydroxyiminomethyl)pyrrol-1-yl]benzoic acid] were, in that order, 58.1%, 1400 nM and 1.45.
`CCOC(=O)C(C)Sc1nc2c(c(=O)[nH]c(=O)n2C)n1C/C=C(/C)Cl` (stereo not drawn) [Ethyl 2-[7-[(Z)-3-Chlorobut-2-enyl]-3-methyl-2,6-dioxo-purin-8-yl]sulfanylpropanoate]: the inhibition at 20 µM on HePTP [1] was found to be 55.4%. Further, at HePTP [2], the IC50 is 8330 nM and the “n / nH (Hill coefficient)” value stood at 1.44.
The corresponding values for `O=C1Nc2ccccc2SC(c2ccccc2)C1O` (stereo not drawn) [4-Hydroxy-3-phenyl-2-thia-6-azabicyclo[5.4.0]undeca-7,9,11-trien-5-one] are 67.2%, 1150 nM and 2.13.
As to `CCCCC[C@H](O)/C=C/[C@H]1C=CC(=O)[C@@H]1C/C=C\CCCC(=O)O` [(Z)-7-[(1R,2S)-2-[(E,3S)-3-Hydroxyoct-1-enyl]-5-oxo-1-cyclopent-3-enyl]hept-5-enoic acid], the inhibition at 20 µM at HePTP [1] amounted to 57.3%. Besides, at HePTP [2], half-maximal inhibition (IC50) required 13700 nM and the “n / nH (Hill coefficient)” value worked out at 2.49.
For `CCOC(=O)C1CCN(C(=O)Nc2ccc3nc(-c4ccco4)c(-c4ccco4)nc3c2)CC1` [Ethyl 1-[[2,3-bis(2-furyl)quinoxalin-6-yl]carbamoyl]piperidine-4-carboxylate], at HePTP [1], the inhibition at 20 µM turned out to be 103%. Also, at HePTP [2], the half-maximal inhibitory concentration (IC50) was determined as 1120 nM and the “n / nH (Hill coefficient)” value turned out to be 1.95.
The corresponding values for `COc1ccc2c(c1)=CC(=C1N=C(c3ccc(F)cc3)ON1)C(=O)N=2` (stereo in doubt) [(3Z)-3-[5-(4-fluorophenyl)-1,2,4-oxadiazol-3-ylidene]-6-methoxy-quinolin-2-one] are 99.2%, 2180 nM and 2.73.
The like results for `O=C(O)c1cc(O)c2c(c1)C(=O)c1cccc(O)c1C2=O` [4,5-Dihydroxy-9,10-dioxo-anthracene-2-carboxylic acid] were, in that order, 64.2%, 19600 nM and 0.76.
The like results for `COc1ccc(Br)cc1/C=c1\sc2nc(-c3ccco3)nn2c1=O` [3-[(5-Bromo-2-methoxy-phenyl)methylidene]-7-(2-furyl)-4-thia-1,6,8-triazabicyclo[3.3.0]octa-5,7-dien-2-one] were, in that order, 95.3%, 420 nM and 2.5.
In the case of `CCn1c(SCC(=O)O)nc2c(c1=O)C1=C(CCC1)C2`, the inhibition at 20 µM on HePTP [1] amounted to 102%. On HePTP [2], 1290 nM corresponded to half-maximal inhibition (IC50) and the “n / nH (Hill coefficient)” value worked out at 4.48.
The corresponding values for `O=C(O)CCC(=O)N1CCc2cc(S(=O)(=O)N3CCN(c4ccc(F)cc4)CC3)ccc21` [4-[5-[4-(4-Fluorophenyl)piperazin-1-yl]sulfonyl-2,3-dihydroindol-1-yl]-4-oxo-butanoic acid] are 58.8%, 3770 nM and 7.72.
For the molecule `CCc1ccc(OCC(=O)NC2=CC(=O)/C(=C3/Nc4ccccc4O3)C=C2)cc1` [N-[(4Z)-4-(3H-Benzooxazol-2-ylidene)-3-oxo-1-cyclohexa-1,5-dienyl]-2-(4-ethylphenoxy)acetamide], the inhibition at 20 µM at HePTP [1] was found to be 59%. Also, on HePTP [2], the IC50 stood at 5280 nM and the “n / nH (Hill coefficient)” value was found to be 0.29.

As a reminder, the IC50 is the midpoint of a concentration-inhibition curve.
